Measured values as given in patent US20220192985A1, “METHOD OF PRODUCTION OF A COMPOSITE OF YEAST-DERIVED BETA GLUCAN PARTICLE WITH INCORPORATED POORLY-WATER-SOLUBLE LOW-MOLECULAR-WEIGHT COMPOUND, PHARMACEUTICAL PREPARATION AND USE THEREOF” (VYSOKA SKOLA CHEMICKO-TECHNOLOGICKA V PRAZE, priority 2019, published 2022).

Tests used:
Format in all cases: physicochemical
[1] = Moisture (water content), moisture analysis balance; conditions: first measurement, 100° C. infrared drying
Experimental: (§1) The moisture (water content) of the samples was firstly measure using a moisture analysis balance (simple test, 100° C., 5 mg initial mass, infrared drying). […] The samples were then dried for 24 hours in the oven with very-slowly-moving fan at 30° C. Finally, a shear test (FIG. 15) was performed on the samples a Powder Rheometer FT4 (pre-sheared at 3 kPa consolidation and initial mass of 0.6-0.7 g).

[2] = Powder rheology shear test (FT4), Comparative Example 9; conditions: pre-sheared at 3 kPa, mass ratio 10%
Experimental: Shear tests were performed on the samples a Powder Rheometer FT4 (pre-sheared at 3 kPa consolidation and initial mass of 0.6-0.7 g). The tests were carried out per duplicate under laboratory conditions (21.2±0.7° C. and 35.1±2.0% relative humidity).

[3] = Powder rheology shear test (FT4), Example 8; conditions: pre-sheared at 3 kPa; ATO/GP mass ratio 25%
Experimental: as §1

[4] = Dissolution test of (IBU+ASA)/GP, crude IBU and crude ASA in 10 mM HCl (pH 2.0); conditions: 10 mM HCl pH 2.0, room temperature; compared with encapsulated drug
Experimental: Dissolution tests (FIG. 11) were performed for crude micronized ibuprofen, crude acetylsalicylic acid and for the produced (IBU+ASA)/GP composite particles, in powder form and using 10 mM HCl (pH 2.0) as dissolution medium. For that, 20.0 mg of crude drug (IBU or ASA) or 100.0 mg of (IBU+ASA)/GP composite, were added to 200 mL of continuously stirred dissolution medium (for a maximum concentration of 0.1 mg of drug per ml of medium). The mixtures were continuously stirred at 250 rpm and room temperature in a 250-mL beaker. At pre-defined time-points (ranging from 0 to 60 min), 500 μL of sample were collected, centrifuged and filtered (200-nm pore size filtration membrane), and the concentration was evaluated by high-performance liquid chromatography (HPLC) with UV detection (Agilent), coupled with C18 column (100 mm×4.6 mm, 5 μm) and mobile phase consisting of 0.01 M ammonium phosphate buffer (pH 2.0) and acetonitrile, in gradient according to the Table 2: […]

CC(C)c1c(C(=O)Nc2ccccc2)c(-c2ccccc2)c(-c2ccc(F)cc2)n1CC[C@@H](O)C[C@@H](O)CC(=O)O [Crude ATO, atorvastatin]
moisture (water content) [1]: 2.5 % wt. | Cohesion ([2]; 21.2±0.7° C., 35.1±2.0% relative humidity): 0.81 ± 0.21 kPa | AIF (Angle of Internal Friction) [2]: 51.24 ± 0.82 ° | Category (flowability) [2]: Cohesive | FF (Flow Function) [2]: 2.43 ± 0.48 | AIF (Angle of Internal Friction) [3]: 45.3 ° | Cohesion [3]: 0.879 kPa

CC(=O)Oc1ccccc1C(=O)O [crude ASA, acetylsalicylic acid]
dissolution rate [4]: slower dissolution rates

CC(C)Cc1ccc(C(C)C(=O)O)cc1 (stereo not drawn) [crude IBU, ibuprofen]
dissolution rate [4]: slower dissolution rates
